# Target: T1, human recombinant COX-2 (Homo sapiens, UniProt P35354)
# T1 construct: purchased Cayman
# T1 sequence (P35354 18-604): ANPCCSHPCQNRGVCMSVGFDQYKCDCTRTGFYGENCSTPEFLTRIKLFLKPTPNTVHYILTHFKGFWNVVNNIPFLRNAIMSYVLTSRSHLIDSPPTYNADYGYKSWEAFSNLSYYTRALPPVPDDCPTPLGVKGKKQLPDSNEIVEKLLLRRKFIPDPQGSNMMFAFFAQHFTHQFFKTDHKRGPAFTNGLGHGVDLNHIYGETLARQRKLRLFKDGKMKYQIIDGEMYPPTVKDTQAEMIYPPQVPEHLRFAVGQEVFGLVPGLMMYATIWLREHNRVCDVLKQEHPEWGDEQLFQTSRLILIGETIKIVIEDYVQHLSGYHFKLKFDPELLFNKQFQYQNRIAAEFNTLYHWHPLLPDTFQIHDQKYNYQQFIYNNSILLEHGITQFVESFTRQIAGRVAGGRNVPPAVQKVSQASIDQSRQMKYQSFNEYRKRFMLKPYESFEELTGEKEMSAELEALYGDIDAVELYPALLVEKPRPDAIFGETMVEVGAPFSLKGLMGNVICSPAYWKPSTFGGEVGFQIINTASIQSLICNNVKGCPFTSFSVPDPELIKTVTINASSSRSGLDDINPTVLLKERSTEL
# Assay: Colorimetric COX Inhibitor Screening Assay (Cayman), COX-2 inhibitory effect
# Assay type: biochemical
# Description: Cayman’s Colorimetric COX Inhibitor Screening Assay provides a convenient method for human recombinant COX-2 to screen isozyme-specific inhibitors. The assay measures the peroxidase component of COXs. The peroxidase activity is assayed colorimetrically by monitoring the appearance of oxidized N′,N,N,N′-tetramethyl-p-phenylenediamine (TMPD) at 590 nm. The COX-2 assay consisted of a 200 µL reaction mixture containing 150 µL assay buffer, 10 µL Heme, 10 µL COX-2, 20 µL Colorimetric Substrate, and 10 µL test solution (1, 5, 10, 20, 80, 100 µmol·L^−1). The reactions were initiated by quickly adding 10 µL Arachidonic Acid, then incubating for 2 min at room temperature.
row,Compound,IC50
1,"CC(C=CC(O)C(C)(C)O)C1CCC2(C)C3CC=C4C(CCC(O)C4(C)C)C3(C)CCC12C (stereo not drawn) [Compound 1, cucurbita-5, 22-diene-3β, 24S, 25-triol]",> 100 µM
2,"C[C@H](CC[C@H](O)C(C)(C)O)[C@H]1CC[C@@]2(C)[C@@H]3CC=C4[C@@H](CC[C@H](O)C4(C)C)[C@]3(C)CC[C@]12C [Compound 2, cucurbita-5-ene-3β,24S,25-triol]",18.9 ± 1.65 µM
3,"C[C@H](C/C=C/C(C)(C)O)[C@H]1CC[C@@]2(C)[C@@H]3C[C@H]4O[C@@]45[C@@H](CC[C@H](O)C5(C)C)[C@]3(C)CC[C@]12C [Compound 3, cucurbita-5β,6β-epoxy-23-ene-3β, 25-diol]",> 100 µM
4,"C[C@H](CCCO)[C@H]1CC[C@@]2(C)[C@@H]3CC=C4[C@@H](CC[C@H](O)C4(C)C)[C@]3(C)CC[C@]12C [Compound 4, 25,26,27-trinorcucurbita-5-ene-3β,24-diol]",3.98 ± 0.32 µM
5,"C[C@H](CCC(=O)O)[C@H]1CC[C@@]2(C)[C@@H]3CC=C4[C@@H](CC[C@H](O)C4(C)C)[C@]3(C)CC[C@]12C [Compound 5, 25,26,27-trinorcucurbita-5-ene-3β-ol-24-acid]",19.5 ± 1.87 µM
6,"C[C@H](CCO)[C@H]1CC[C@@]2(C)[C@@H]3CC=C4[C@@H](CC[C@H](O)C4(C)C)[C@]3(C)CC[C@]12C [Compound 6, 24,25,26,27-tetranorcucurbita-5-ene-3β,23-diol]",31 ± 2.64 µM
7,"CC(CC=CC(C)(C)O)C1CCC2(C)C3CCC4(C)C(C)C(=O)CCC4C3(C)CCC12C (stereo not drawn) [Compound 7, 18R-D:A-friedoeuph-20-ene-22-ol-3-one]",> 100 µM
8,C=C(C)[C@@H](O)CC[C@@H](C)[C@@H]1CC[C@]2(C)[C@H]3CC[C@@]4(C)[C@@H](CCC(=O)[C@@H]4C)[C@]3(C)CC[C@@]12C [Compound 8],> 100 µM
9,"C[C@H](C/C=C/C(C)(C)O)[C@H]1CC[C@@]2(C)[C@@H]3CC=C4[C@@H](CC[C@H](O)C4(C)C)[C@]3(C)CC[C@]12C [Compound 9, cucurbita-5,23-diene-3β,25-diol]",> 100 µM

# Source: publication PMC7046841, “Triterpenoids from Ainsliaea latifolia and Their Cyclooxyenase-2 (COX-2) Inhibitory Activities” (Natural Products and Bioprospecting, 2019)
